pIC50: −log10 of the molar value.
How the values were obtained:
A549 = test: Concentration required to inhibit growth of human tumor A549 (NSCL) cell line.; assay type: functional, cell-based
A121 = test: Concentration required to inhibit growth of human tumor A121 (ovarian) cell line.; assay type: functional, cell-based
HT-29 = test: Concentration required to inhibit growth of human tumor HT-29 (colon) cell line.; assay type: functional, cell-based
MCF7 [1] = test: Concentration required to inhibit growth of human tumor MCF-7 (breast) cell line.; assay type: functional, cell-based
MCF7 [2] = test: Concentration required to inhibit growth of human tumor […] (breast) cell line.; assay type: functional, cell-based
A2780 [3] = test: Cytotoxicity against A2780-C25, oxaliplatin-resistant Ovarian carcinoma cell line; assay type: functional, cell-based, Homo sapiens; conditions: a2780
A2780 [4] = test: Cytotoxicity against A2780-WT, human ovarian carcinoma cell line; assay type: functional, cell-based; conditions: a2780
A2780 [5] = test: Cytotoxicity against A2780-CP3, cisplatin-resistant Ovarian carcinoma cell line; assay type: functional, cell-based, Homo sapiens; conditions: a2780
A2780 [6] = test: Cytotoxicity against A2780-DX5, Doxorubicin-resistant Ovarian carcinoma cell line; assay type: functional, cell-based, Homo sapiens; conditions: a2780

pIC50 (A549) | pIC50 (HT-29) | pIC50 (MCF7 [1]) | pIC50 (MCF7 [2]) | Molecule | pIC50 (A121) | pIC50 (A2780 [3]) | pIC50 (A2780 [4]) | pIC50 (A2780 [5]) | pIC50 (A2780 [6])
9.82 | 9.39 | 9.51 | 6.79 | CCNC(=O)O[C@H]1C(=O)[C@@]2(C)[C@H]([C@H](OC(=O)c3ccccc3)[C@]3(O)C[C@H](OC(=O)[C@H](O)[C@H](C=C(C)C)NC(=O)OC(C)(C)C)C(C)=C1C3(C)C)[C@]1(OC(C)=O)CO[C@@H]1C[C@@H]2O | 9.54 |  |  |  | 
 |  |  |  | CISPLATIN |  | 5.80 | 6.35 | 5.05 | 6.55
9.28 | 9.28 | 9.46 | 8.55 | CCC(=O)O[C@H]1C(=O)[C@@]2(C)[C@H]([C@H](OC(=O)c3ccccc3)[C@]3(O)C[C@H](OC(=O)[C@H](O)[C@H](CC(C)C)NC(=O)OC(C)(C)C)C(C)=C1C3(C)C)[C@]1(OC(C)=O)CO[C@@H]1C[C@@H]2O | 9.39 |  |  |  | 
9.22 | 9.30 | 9.89 | 8.31 | CC(=O)O[C@@]12CO[C@@H]1C[C@H](O)[C@@]1(C)C(=O)[C@H](OC(=O)N(C)C)C3=C(C)[C@@H](OC(=O)[C@H](O)[C@H](C=C(C)C)NC(=O)OC(C)(C)C)C[C@@](O)([C@@H](OC(=O)c4ccccc4)[C@H]21)C3(C)C | 9.52 |  |  |  | 
9.46 | 9.28 | 9.36 | 7.12 | C=CCNC(=O)O[C@H]1C(=O)[C@@]2(C)[C@H]([C@H](OC(=O)c3ccccc3)[C@]3(O)C[C@H](OC(=O)[C@H](O)[C@H](C=C(C)C)NC(=O)OC(C)(C)C)C(C)=C1C3(C)C)[C@]1(OC(C)=O)CO[C@@H]1C[C@@H]2O | 9.36 |  |  |  | 
9.22 | 9.22 | 9.48 | 6.67 | CO[C@H]1C(=O)[C@@]2(C)[C@H]([C@H](OC(=O)c3ccccc3)[C@]3(O)C[C@H](OC(=O)[C@H](O)[C@H](CC(C)C)NC(=O)OC(C)(C)C)C(C)=C1C3(C)C)[C@]1(OC(C)=O)CO[C@@H]1C[C@@H]2O | 9.15 |  |  |  | 
9.70 | 9.40 | 9.70 | 8.04 | CCN(CC)C(=O)O[C@H]1C(=O)[C@@]2(C)[C@H]([C@H](OC(=O)c3ccccc3)[C@]3(O)C[C@H](OC(=O)[C@H](O)[C@H](C=C(C)C)NC(=O)OC(C)(C)C)C(C)=C1C3(C)C)[C@]1(OC(C)=O)CO[C@@H]1C[C@@H]2O | 9.77 |  |  |  | 
9.30 | 9.30 | 9.40 | 7.98 | CC(=O)O[C@@]12CO[C@@H]1C[C@H](O)[C@@]1(C)C(=O)[C@H](OC(=O)CC(C)(C)C)C3=C(C)[C@@H](OC(=O)[C@H](O)[C@H](C=C(C)C)NC(=O)OC(C)(C)C)C[C@@](O)([C@@H](OC(=O)c4ccccc4)[C@H]21)C3(C)C | 9.47 |  |  |  | 
9.12 | 8.98 | 9.34 | 7.65 | CC(=O)O[C@@]12CO[C@@H]1C[C@H](O)[C@@]1(C)C(=O)[C@H](OC(=O)C3CCCCC3)C3=C(C)[C@@H](OC(=O)[C@H](O)[C@H](C=C(C)C)NC(=O)OC(C)(C)C)C[C@@](O)([C@@H](OC(=O)c4ccccc4)[C@H]21)C3(C)C | 9.30 |  |  |  | 
9.46 | 9.36 | 9.55 | 8.19 | COC(=O)O[C@H]1C(=O)[C@@]2(C)[C@H]([C@H](OC(=O)c3ccccc3)[C@]3(O)C[C@H](OC(=O)[C@H](O)[C@H](CC(C)C)NC(=O)OC(C)(C)C)C(C)=C1C3(C)C)[C@]1(OC(C)=O)CO[C@@H]1C[C@@H]2O | 9.74 |  |  |  | 
9.01 | 8.49 | 8.40 | 7.44 | CC(=O)O[C@H]1C(=O)[C@@]2(C)[C@H]([C@H](OC(=O)c3ccccc3)[C@]3(O)C[C@H](OC(=O)[C@H](O)[C@H](CC(C)C)NC(=O)OC(C)(C)C)C(C)=C1C3(C)C)[C@]1(OC(C)=O)CO[C@@H]1C[C@@H]2O | 8.42 |  |  |  | 
9.40 | 9.22 | 9.40 | 8.07 | CC(=O)O[C@@]12CO[C@@H]1C[C@H](O)[C@@]1(C)C(=O)[C@H](OC(=O)CC(C)C)C3=C(C)[C@@H](OC(=O)[C@H](O)[C@H](C=C(C)C)NC(=O)OC(C)(C)C)C[C@@](O)([C@@H](OC(=O)c4ccccc4)[C@H]21)C3(C)C | 9.22 |  |  |  | 
9.66 | 9.26 | 9.44 | 7.06 | CCCNC(=O)O[C@H]1C(=O)[C@@]2(C)[C@H]([C@H](OC(=O)c3ccccc3)[C@]3(O)C[C@H](OC(=O)[C@H](O)[C@H](C=C(C)C)NC(=O)OC(C)(C)C)C(C)=C1C3(C)C)[C@]1(OC(C)=O)CO[C@@H]1C[C@@H]2O | 9.47 |  |  |  | 
9.44 | 9.28 | 9.34 | 7.19 | CC(=O)O[C@@]12CO[C@@H]1C[C@H](O)[C@@]1(C)C(=O)[C@H](OC(=O)NC(C)C)C3=C(C)[C@@H](OC(=O)[C@H](O)[C@H](C=C(C)C)NC(=O)OC(C)(C)C)C[C@@](O)([C@@H](OC(=O)c4ccccc4)[C@H]21)C3(C)C | 9.47 |  |  |  | 
8.43 | 8.30 | 8.80 | 7.48 | CC(=O)O[C@@]12CO[C@@H]1C[C@H](O)[C@@]1(C)C(=O)[C@H](OC(=O)NC3CCCCC3)C3=C(C)[C@@H](OC(=O)[C@H](O)[C@H](CC(C)C)NC(=O)OC(C)(C)C)C[C@@](O)([C@@H](OC(=O)c4ccccc4)[C@H]21)C3(C)C | 8.30 |  |  |  | 
9.15 | 8.92 | 9.40 | 7.70 | CNC(=O)O[C@H]1C(=O)[C@@]2(C)[C@H]([C@H](OC(=O)c3ccccc3)[C@]3(O)C[C@H](OC(=O)[C@H](O)[C@H](C=C(C)C)NC(=O)OC(C)(C)C)C(C)=C1C3(C)C)[C@]1(OC(C)=O)CO[C@@H]1C[C@@H]2O | 8.92 |  |  |  | 
9.22 | 9.22 | 9.30 | 7.52 | CCCCC(=O)O[C@H]1C(=O)[C@@]2(C)[C@H]([C@H](OC(=O)c3ccccc3)[C@]3(O)C[C@H](OC(=O)[C@H](O)[C@H](C=C(C)C)NC(=O)OC(C)(C)C)C(C)=C1C3(C)C)[C@]1(OC(C)=O)CO[C@@H]1C[C@@H]2O | 9.22 |  |  |  | 
9.49 | 9.52 | 9.85 | 8.28 | COC(=O)O[C@H]1C(=O)[C@@]2(C)[C@H]([C@H](OC(=O)c3ccccc3)[C@]3(O)C[C@H](OC(=O)[C@H](O)[C@H](C=C(C)C)NC(=O)OC(C)(C)C)C(C)=C1C3(C)C)[C@]1(OC(C)=O)CO[C@@H]1C[C@@H]2O | 9.64 |  |  |  | 
9.70 | 9.34 | 9.48 | 7.32 | CC(=O)O[C@@]12CO[C@@H]1C[C@H](O)[C@@]1(C)C(=O)[C@H](OC(=O)NC3CCCCC3)C3=C(C)[C@@H](OC(=O)[C@H](O)[C@H](C=C(C)C)NC(=O)OC(C)(C)C)C[C@@](O)([C@@H](OC(=O)c4ccccc4)[C@H]21)C3(C)C | 9.55 |  |  |  | 
 |  |  |  | CC(=O)O[C@H]1C(=O)[C@@]2(C)[C@H]([C@H](OC(=O)c3ccccc3)[C@]3(O)C[C@H](OC(=O)[C@H](O)[C@@H](NC(=O)c4ccccc4)c4ccccc4)C(C)=C1C3(C)C)[C@]1(OC(C)=O)CO[C@@H]1C[C@@H]2O [PACLITAXEL] | 8.20 |  |  |  | 
9.24 | 9.05 | 9.40 | 7.76 | CCCCCC(=O)O[C@H]1C(=O)[C@@]2(C)[C@H]([C@H](OC(=O)c3ccccc3)[C@]3(O)C[C@H](OC(=O)[C@H](O)[C@H](C=C(C)C)NC(=O)OC(C)(C)C)C(C)=C1C3(C)C)[C@]1(OC(C)=O)CO[C@@H]1C[C@@H]2O | 9.30 |  |  |  | 
8.77 | 9.22 | 9.59 | 8.47 | C/C=C/C(=O)O[C@H]1C(=O)[C@@]2(C)[C@H]([C@H](OC(=O)c3ccccc3)[C@]3(O)C[C@H](OC(=O)[C@H](O)[C@H](C=C(C)C)NC(=O)OC(C)(C)C)C(C)=C1C3(C)C)[C@]1(OC(C)=O)CO[C@@H]1C[C@@H]2O | 9.35 |  |  |  | 
8.96 | 9.11 | 9.29 | 8.37 | CC(=O)O[C@@]12CO[C@@H]1C[C@H](O)[C@@]1(C)C(=O)[C@H](OC(=O)C3CC3)C3=C(C)[C@@H](OC(=O)[C@H](O)[C@H](CC(C)C)NC(=O)OC(C)(C)C)C[C@@](O)([C@@H](OC(=O)c4ccccc4)[C@H]21)C3(C)C | 9.29 |  |  |  | 
9.66 | 9.74 | 10.05 | 7.90 | CC(=O)O[C@@]12CO[C@@H]1C[C@H](O)[C@@]1(C)C(=O)[C@H](OC(=O)N3CCOCC3)C3=C(C)[C@@H](OC(=O)[C@H](O)[C@H](C=C(C)C)NC(=O)OC(C)(C)C)C[C@@](O)([C@@H](OC(=O)c4ccccc4)[C@H]21)C3(C)C | 10.05 |  |  |  | 
9.05 | 9.05 | 9.43 | 6.91 | CO[C@H]1C(=O)[C@@]2(C)[C@H]([C@H](OC(=O)c3ccccc3)[C@]3(O)C[C@H](OC(=O)[C@H](O)[C@H](C=C(C)C)NC(=O)OC(C)(C)C)C(C)=C1C3(C)C)[C@]1(OC(C)=O)CO[C@@H]1C[C@@H]2O | 9.15 |  |  |  | 
9.30 | 9.22 | 9.44 | 8.24 | CC(=O)O[C@@]12CO[C@@H]1C[C@H](O)[C@@]1(C)C(=O)[C@H](OC(=O)N(C)C)C3=C(C)[C@@H](OC(=O)[C@H](O)[C@H](CC(C)C)NC(=O)OC(C)(C)C)C[C@@](O)([C@@H](OC(=O)c4ccccc4)[C@H]21)C3(C)C | 9.40 |  |  |  | 

Molecule | pIC50 (A549) | pIC50 (HT-29) | pIC50 (MCF7 [1]) | pIC50 (MCF7 [2]) | pIC50 (A121) | pIC50 (A2780 [3]) | pIC50 (A2780 [4]) | pIC50 (A2780 [5]) | pIC50 (A2780 [6])
CC(=O)O[C@@]12CO[C@@H]1C[C@H](O)[C@@]1(C)C(=O)[C@H](OC(=O)C3CC3)C3=C(C)[C@@H](OC(=O)[C@H](O)[C@H](C=C(C)C)NC(=O)OC(C)(C)C)C[C@@](O)([C@@H](OC(=O)c4ccccc4)[C@H]21)C3(C)C | 9.24 | 9.44 | 9.70 | 8.68 | 9.59 |  |  |  | 

From ChEMBL document CHEMBL1129422, “Syntheses and structure-activity relationships of the second-generation antitumor taxoids: exceptional activity against drug-resistant cancer cells” (J Med Chem, 1996)
